Laboratory results taken from patent publication US20220106304A1, “Transcription Factor BRN2 Inhibitory Compounds as Therapeutics and Methods for Their Use” (The University of British Columbia, priority 2018, published 2022).

Target: T1, BRN2 (Homo sapiens, UniProt P20265)
T1 sequence (P20265 1-443): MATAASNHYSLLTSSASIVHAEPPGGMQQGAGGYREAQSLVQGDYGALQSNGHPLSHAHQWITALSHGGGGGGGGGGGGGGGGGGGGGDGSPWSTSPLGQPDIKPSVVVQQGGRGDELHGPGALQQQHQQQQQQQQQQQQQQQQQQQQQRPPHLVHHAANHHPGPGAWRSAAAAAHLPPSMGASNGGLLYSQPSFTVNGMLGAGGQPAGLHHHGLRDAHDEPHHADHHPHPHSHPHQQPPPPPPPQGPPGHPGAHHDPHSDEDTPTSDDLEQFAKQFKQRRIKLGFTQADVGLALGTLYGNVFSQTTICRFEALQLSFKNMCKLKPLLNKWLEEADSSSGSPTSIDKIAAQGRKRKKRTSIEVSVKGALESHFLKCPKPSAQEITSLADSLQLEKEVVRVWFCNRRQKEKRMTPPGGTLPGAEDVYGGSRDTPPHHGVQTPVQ
Test: cell-based
Conditions: for % BRN2 Inhibition (10 μM): 10 μM compound; for % BRN2 Inhibition (10 μM) / % BRN2 Inhibition (30 μM): 24 hours, 42D^ENZR cells stably expressing BRN2-luciferase reporter; for % BRN2 Inhibition (10 μM) / % BRN2 Inhibition (30 μM) / inhibition at 10 µM / inhibition at 30 µM: negative = activation; for % BRN2 Inhibition (30 μM): 30 μM compound; for inhibition at 10 µM: read-out: % BRN2 Inhibition (10 μM), 10 μM compound, 24 hours, 42D^ENZR cells stably expressing BRN2-luciferase reporter; for inhibition at 30 µM: read-out: % BRN2 Inhibition (30 μM), 30 μM compound, 24 hours, 42D^ENZR cells stably expressing BRN2-luciferase reporter; for cell death (30 μM): cell death = severe toxicity at a low dose
Source text: Decreased expression of luciferase protein is validated via western blot to confirm downregulation and avoid false positive molecules that inhibit luciferase protein activity and not BRN2-drive luciferase expression. Molecules are prioritized by their inhibition potency to measure direct interaction with BRN2 in Step 2.
In TABLES 1 and 2, when a single value is mentioned in columns Met Stab % and T½, it refers to compound's stability in MLM and when two values are given they represent HLM/MLM. There is a distinction in TABLES 1 and 2 difference between “Active” and “Specific” or “Specificity”. Compounds are first tested to quantify inhibition of BRN2 transcriptional activity in a luciferase assay to determine “Activity” at […] and 30 μM concentrations. […] Where data is not available “na” is inserted. Where data has yet to be calculated the notation “nc” is used.

Row | SMILES | % BRN2 Inhibition (10 μM) | % BRN2 Inhibition (30 μM) | inhibition at 10 µM [%] | inhibition at 30 µM [%] | cell death (30 μM)
1 | CCn1c(-c2csc(-c3ccccn3)n2)nc2ccccc21 [VPC-18-15] | insoluble | insoluble | – | – | –
2 | Cn1c(-c2ccc(-c3ccccc3)o2)nc2ccc([N+](=O)[O-])cc21 [VPC-18-30, 1-Methyl-6-nitro-2-(5-phenylfuran-2-yl)-1H-benzo[d]imidazole] | – | – | 2.63 | 17.4 | –
3 | Cn1c(-c2ccc(-c3ccc(Br)cc3Cl)o2)nc2ccc(C(F)(F)F)cc21 [VPC-18-34, 2-(5-(4-Bromo-2-chlorophenyl)furan-2-yl)-1-methyl-6-(trifluoromethyl)-1H-benzo[d]imidazole] | – | – | -0.86 | 46.7 | –
4 | Cn1c(-c2csc(-c3ccccc3)n2)nc2ccc(Cl)cc21 [VPC-18-37, 4-(6-Chloro-1-methyl-1H-benzo[d]imidazol-2-yl)-2-phenylthiazole] | – | – | -14.5 | -58.7 | –
5 | c1ccc2oc(-c3csc(N4CC5CC4CO5)n3)cc2c1 (stereo not shown) [VPC-18-38, 5-(4-(Benzofuran-2-yl)thiazol-2-yl)-2-oxa-5-azabicyclo[2.2.1]heptane] | – | – | -51.2 | 67 | –
6 | Cn1c(-c2ccc(-c3ccc(F)cc3F)o2)nc2ccc([N+](=O)[O-])cc21 [VPC-18-39, 2-(5-(2,4-Difluorophenyl)furan-2-yl)-1-methyl-6-nitro-1H-benzo[d]imidazole] | – | – | -150 | -63.1 | –
7 | O=[N+]([O-])c1ccc2nc(-c3ccc(-c4ccc(Br)cc4Cl)o3)[nH]c2c1 [VPC-18-40, 2-(5-(4-Bromo-2-chlorophenyl)furan-2-yl)-6-nitro-1H-benzo[d]imidazole] | – | – | -32.7 | -84.1 | –
8 | Cn1c(-c2ccc(-c3cncnc3)o2)nc2ccccc21 [VPC-18-43, 1-Methyl-2-(5-(pyrimidin-5-yl)furan-2-yl)-1H-benzo[d]imidazole] | – | – | -124 | -83 | –
9 | O=[N+]([O-])c1ccc(-c2nc(-c3cc4ccccc4o3)cs2)cc1 [VPC-18-44, 4-(Benzofuran-2-yl)-2-(4-nitrophenyl)thiazole] | – | – | -45 | -104 | –
10 | NS(=O)(=O)c1ccc2nc(-c3csc(-c4ccccc4F)n3)[nH]c2c1 [VPC-18-46, 2-(2-(2-Fluorophenyl)thiazol-4-yl)-1H-benzo[d]imidazole-6-sulfonamide] | – | – | -69.6 | -158 | –
11 | O=[N+]([O-])c1ccc(-c2nc(-c3cc4ccccc4o3)cs2)o1 [VPC-18-49, 4-(Benzofuran-2-yl)-2-(5-nitrofuran-2-yl)thiazole] | – | – | -48 | -21 | –
12 | Cn1c(-c2ccc(N3CC4CC3CO4)o2)nc2ccccc21 (stereo not shown) [VPC-18-50, 5-(5-(1-Methyl-1H-benzo[d]imidazol-2-yl)furan-2-yl)-2-oxa-5-azabicyclo[2.2.1]heptane] | – | – | -26.6 | 27.5 | –
13 | O=[N+]([O-])c1ccc2cc(-c3csc(-c4ccco4)n3)oc2c1 [VPC-18-52, 2-(Furan-2-yl)-4-(6-nitrobenzofuran-2-yl)thiazole] | – | – | -15.8 | -46 | –
14 | O=[N+]([O-])c1ccc(-c2nc(-c3cc4ccc(F)cc4o3)cs2)o1 [VPC-18-54, 4-(6-Fluorobenzofuran-2-yl)-2-(5-nitrofuran-2-yl)thiazole] | – | – | -60 | -45 | –
15 | O=[N+]([O-])c1ccc2cc(-c3csc(-c4ccc(F)cc4F)n3)oc2c1 [VPC-18-55, 2-(2,4-Difluorophenyl)-4-(6-nitrobenzofuran-2-yl)thiazole] | – | – | -9.94 | -54 | –
16 | Cn1c(-c2csc(-c3ccc(Br)cc3F)n2)nc2ccc(F)cc21 [VPC-18-56, 2-(4-Bromo-2-fluorophenyl)-4-(6-fluoro-1-methyl-1H-benzo[d]imidazol-2-yl)thiazole] | INACTIVE | INACTIVE | – | – | –
17 | Cc1c(-c2csc(-c3ccc(Br)cc3F)n2)oc2cc(F)ccc12 [VPC-18-57, 2-(4-Bromo-2-fluorophenyl)-4-(6-fluoro-3-methylbenzofuran-2-yl)thiazole] | INACTIVE | INACTIVE | – | – | –

Row | SMILES | % BRN2 Inhibition (10 μM) | % BRN2 Inhibition (30 μM) | inhibition at 10 µM [%] | inhibition at 30 µM [%] | cell death (30 μM)
18 | Cn1c(-c2ccc(C3CCCO3)o2)nc2ccccc21 (stereo not shown) [VPC-18-58, 1-Methyl-2-(5-(tetrahydrofuran-2-yl)furan-2-yl)-1H-benzo[d]imidazole] | INACTIVE | INACTIVE | – | – | –
19 | Clc1cc(Br)ccc1-c1nc(-c2cc3ccccc3o2)cs1 [VPC-18-59, 4-(Benzofuran-2-yl)-2-(4-bromo-2-chlorophenyl)thiazole] | INACTIVE | INACTIVE | – | – | –
20 | Cn1c(-c2ccc(-c3ccc(Br)cc3Cl)o2)nc2ccccc21 [VPC-18-60] | – | – | 13 | -37 | –
21 | Cn1c(-c2ccc(-c3ccccc3)o2)nc2ccc(C(F)(F)F)cc21 [VPC-18-61] | – | – | -97 | -92 | –
22 | Cn1c(-c2ccc(-c3ccc(C#N)cc3)o2)nc2ccccc21 [VPC-18-62] | – | – | -62 | -110 | –
23 | Cn1c(-c2ccc(-c3cccnc3)o2)nc2ccc(C(F)(F)F)cc21 [VPC-18-64] | – | – | -30 | -59 | –
24 | Cn1c(-c2ccc(-c3ccccc3F)o2)nc2ccc(C(F)(F)F)cc21 [VPC-18-65] | – | – | -52 | -3 | –
25 | Cn1c(-c2ccc(C3=CCNCC3)o2)nc2ccccc21 [VPC-18-67] | – | – | -38 | 8 | –
26 | CN1CCC(c2ccc(-c3nc4ccccc4n3C)o2)CC1 [VPC-18-68] | – | – | 11 | 14 | –
27 | Cn1c(-c2ccc(-c3ccc(F)cc3F)o2)nc2ccc(C(F)(F)F)cc21 [VPC-18-69] | – | – | -8 | 12 | –
28 | Cl.Cn1c(-c2ccc(C3=CCNCC3)o2)nc2ccc(C(F)(F)F)cc21 [VPC-18-70, 1-methyl-2-(5-(1,2,3,6-tetrahydropyridin-4-yl)furan-2-yl)-6-(trifluoromethyl)-1H-benzo[d]imidazole hydrochloride] | – | – | 74 | 100 | cell death
29 | Cn1c(-c2ccc(N3CCC(F)(F)CC3)o2)nc2ccc(C(F)(F)F)cc21 [VPC-18-79] | – | – | -12.3 | 2.4 | –
30 | NC(=O)c1ccc2cc(-c3csc(-c4ccco4)n3)oc2c1 [VPC-18-83] | – | – | -40 | -10 | –
31 | Cl.Clc1ccc2cc(-c3csc(C4=CCNCC4)n3)oc2c1 [VPC-18-95, 4-(6-chlorobenzofuran-2-yl)-2-(1,2,3,6-tetrahydropyridin-4-yl)thiazole hydrochloride] | – | – | 79.8 | 100 | cell death
32 | Clc1ccc2cc(-c3csc(C4=CCNCC4)n3)oc2c1 [VPC-18-97, 4-(6-chlorobenzofuran-2-yl)-2-(1,2,3,6-tetrahydropyridin-4-yl)thiazole] | 65% | 99.95% | – | – | –
33 | FC(F)(F)c1cccc2oc(-c3csc(-c4ccco4)n3)cc12 [VPC-18-101] | – | – | -81 | -43 | –
34 | O=C(NC1(c2ccco2)CC1)c1cc2ccc(C(F)(F)F)cc2o1 [VPC-18-119] | – | – | 69.9 | -25 | –
